The structures appear in SMILES notation.

These results are taken from paper PMC10372819 (Acta Pharmaceutica Sinica. B, 2023).

One data set addresses hERG (Homo sapiens, UniProt Q12809). Nature of the data set: hERG channel Qpatch assay in CHO-hERG cells. The data set is classed as cell-based. As to conditions: at 40 μmol/L.
Data set [1] in a line: Liver microsomal stability, monkey. The format is in vitro ADME.
Data set [2] in a line: Liver microsomal stability, dog. The format is in vitro ADME.
Data set [3] is described as follows: Liver microsomal stability, human. The format is in vitro ADME.
Data set [4] is described as follows: In vivo pharmacokinetics in Sprague-Dawley rats. As to conditions: male, rat, plasma.
A further data set deals with mice. The data set can be described thus: Acute toxicity assay and HE staining in healthy mice. The format is in vivo.
The test system of data set [5] is WT HIV-1. As to conditions: Selectivity index CC50/EC50 (WT).
The target in a further data set is WT HIV-1 RT (Human immunodeficiency virus type 1 group M subtype B, UniProt P03366). The data set can be described thus: biochemical.
Data set [6] concerns WT HIV-1. The data set can be described thus: microbe, parasite or virus in culture. To be noted: Human immunodeficiency virus 1, MT4, read-out: WT EC50.
A further data set relates to HIV-1 mutant L100I. Nature of the data set: microbe, parasite or virus in culture. To be noted: Human immunodeficiency virus 1, MT4, read-out: EC50 L100I.
A further data set relates to HIV-1 mutant K103N. Nature of the data set: microbe, parasite or virus in culture. To be noted: Human immunodeficiency virus 1, MT4, read-out: EC50 K103N.
A further data set has as its system HIV-1 mutant Y188L. The data set can be described thus: microbe, parasite or virus in culture. As to conditions: Human immunodeficiency virus 1, MT4, read-out: EC50 Y188L.
A further data set deals with HIV-1 mutant E138K. Nature of the data set: microbe, parasite or virus in culture. To be noted: Human immunodeficiency virus 1, MT4, read-out: EC50 E138K.
Data set [7] is described as follows: Cytotoxicity in uninfected. As to conditions: human, mock-infected (uninfected) MT-4 cells, CC50, uninfected MT-4 cells, MTT.
Another data set concerns MT-4 cells. Nature of the data set: Cytotoxicity in uninfected. To be noted: uninfected MT-4 cells, MTT.
In another data set the target is CYP2D6 (Homo sapiens, UniProt P10635). The data set can be described thus: biochemical.
CYP2D6, sequence (P10635 whole entry): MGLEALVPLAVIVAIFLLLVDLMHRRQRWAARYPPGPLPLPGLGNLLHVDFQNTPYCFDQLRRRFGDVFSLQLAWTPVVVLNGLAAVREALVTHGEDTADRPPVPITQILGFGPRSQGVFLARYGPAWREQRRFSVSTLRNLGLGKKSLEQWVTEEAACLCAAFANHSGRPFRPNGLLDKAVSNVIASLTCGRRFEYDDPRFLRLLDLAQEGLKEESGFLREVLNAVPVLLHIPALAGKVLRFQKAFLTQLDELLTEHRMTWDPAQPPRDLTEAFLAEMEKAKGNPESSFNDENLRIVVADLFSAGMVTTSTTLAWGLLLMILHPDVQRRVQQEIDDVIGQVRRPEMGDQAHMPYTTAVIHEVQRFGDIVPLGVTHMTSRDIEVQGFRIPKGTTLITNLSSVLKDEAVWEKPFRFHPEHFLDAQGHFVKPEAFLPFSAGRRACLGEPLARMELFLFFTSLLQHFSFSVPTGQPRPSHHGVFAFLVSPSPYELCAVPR
The mark [8] stands for this setting: MF%>70% excellent, 30-70% good, <30% poor.

hERG, sequence (Q12809 whole entry): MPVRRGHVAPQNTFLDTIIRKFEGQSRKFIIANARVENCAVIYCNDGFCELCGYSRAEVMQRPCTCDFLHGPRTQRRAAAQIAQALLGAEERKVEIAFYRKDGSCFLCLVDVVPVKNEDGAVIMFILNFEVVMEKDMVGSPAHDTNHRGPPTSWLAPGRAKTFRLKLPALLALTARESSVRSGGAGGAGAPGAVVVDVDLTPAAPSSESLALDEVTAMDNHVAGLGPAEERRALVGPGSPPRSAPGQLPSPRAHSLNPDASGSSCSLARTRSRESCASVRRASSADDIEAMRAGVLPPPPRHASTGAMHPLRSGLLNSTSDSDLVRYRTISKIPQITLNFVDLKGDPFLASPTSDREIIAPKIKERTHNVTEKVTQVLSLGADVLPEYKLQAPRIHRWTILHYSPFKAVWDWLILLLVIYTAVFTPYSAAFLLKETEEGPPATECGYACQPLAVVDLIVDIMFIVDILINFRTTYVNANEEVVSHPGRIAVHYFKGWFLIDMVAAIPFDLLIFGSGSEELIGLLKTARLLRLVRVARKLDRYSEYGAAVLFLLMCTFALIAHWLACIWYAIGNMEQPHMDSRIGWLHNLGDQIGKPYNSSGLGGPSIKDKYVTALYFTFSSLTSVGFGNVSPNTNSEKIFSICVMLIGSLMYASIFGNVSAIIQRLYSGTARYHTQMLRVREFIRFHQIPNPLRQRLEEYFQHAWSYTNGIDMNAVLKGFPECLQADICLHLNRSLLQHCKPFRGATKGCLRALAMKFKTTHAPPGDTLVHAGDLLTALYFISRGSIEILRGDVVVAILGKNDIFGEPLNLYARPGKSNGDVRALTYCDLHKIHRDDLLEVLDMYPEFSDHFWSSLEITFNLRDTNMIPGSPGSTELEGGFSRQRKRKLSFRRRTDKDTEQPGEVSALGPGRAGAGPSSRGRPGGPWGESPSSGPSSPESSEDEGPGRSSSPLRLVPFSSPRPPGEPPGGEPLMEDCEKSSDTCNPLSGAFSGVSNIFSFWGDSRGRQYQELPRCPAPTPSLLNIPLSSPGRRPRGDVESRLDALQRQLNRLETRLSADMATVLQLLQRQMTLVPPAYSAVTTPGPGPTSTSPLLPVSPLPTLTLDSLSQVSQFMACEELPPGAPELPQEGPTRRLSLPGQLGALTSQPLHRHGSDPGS

In the case of `N#Cc1ccc(Nc2ncc(CO)c(Oc3c(F)cc(-c4ccc(C#N)cc4)cc3F)n2)cc1` [9g, 4′-((2-((4-Cyanophenyl)amino)-5-(hydroxymethyl)pyrimidin-4-yl)oxy)-3′,5′-difluoro-[1,1′-biphenyl]-4-carbonitrile], on hERG, the “inhibition of hERG” value is reported as “no significant inhibition”. Also, the MF is 28.1% in data set [1] (setting [8]); 42.2% in data set [2] (setting [8]); 96.3% in data set [3] (human, MF%>70% excellent, 30-70% good, <30% poor). For the same compound, the half-life is 0.435 h in data set [1] (monkey liver microsomes); 1.19 h in data set [2] (dog liver microsomes); 45.9 h in [3] (human, human liver microsomes); 1.5 ± 0.14 h in data set [4] (iv, 1 mg/kg); 5.21 ± 3.02 h in data set [4] (po, 10 mg/kg). Also, the intrinsic metabolic clearance (CLint scaled) in [1] (monkey liver microsomes, Clint(hep)) is 122 mL/min/kg; in [1] (monkey liver microsomes, Clint(mic), monkey liver microsome), 80.5 mL/min/kg; in data set [2] (dog liver microsomes, Clint(hep)) it was 179 mL/min/kg; in data set [2] (dog liver microsomes, Clint(mic), dog liver microsome), 29.5 mL/min/kg; in [3] (human, human liver microsomes, Clint(hep)) it was 56.2 mL/min/kg; in [3] (human, human liver microsomes, Clint(mic), human liver microsome), 0.763 mL/min/kg. Also, the “t1/2 in human liver microsomes, fold longer than that of 5” value in [3] (relative to 5 (t1/2 = 96 min)) was “about 29 fold”. Besides, the Cmax in data set [4] (iv, 1 mg/kg) amounted to 296 ± 79.4 ng/mL; in data set [4] (po, 10 mg/kg) it was 39.3 ± 8.04 ng/mL. The Tmax in data set [4] (iv, 1 mg/kg) worked out at 0.08 h; in data set [4] (po, 10 mg/kg), 0.83 ± 0.29 h. The AUC amounted to 244 ± 24.5 ng·h/mL in [4] (iv, 1 mg/kg, AUC0‒t, 1.0 mg/kg i.v.); 247 ± 25.8 ng·h/mL in data set [4] (iv, 1 mg/kg, AUC0‒∞, 1.0 mg/kg i.v.); 159 ± 48.7 ng·h/mL in data set [4] (po, 10 mg/kg, AUC0‒t, 10.0 mg/kg p.o.); 198 ± 38.6 ng·h/mL in data set [4] (po, 10 mg/kg, AUC0‒∞, 10.0 mg/kg p.o.). Besides, the MRT in data set [4] (iv, 1 mg/kg, MRT0‒t, 1.0 mg/kg i.v.) was determined as 1.19 ± 0.16 h; in data set [4] (iv, 1 mg/kg, MRT0‒∞, 1.0 mg/kg i.v.), 1.33 ± 0.21 h; in data set [4] (po, 10 mg/kg, MRT0‒t, 10.0 mg/kg p.o.) it was 3.91 ± 2.38 h; in data set [4] (po, 10 mg/kg, MRT0‒∞, 10.0 mg/kg p.o.), 6.8 ± 2.79 h. Further, the bioavailability in [4] (po, 10 mg/kg) was 8.01 ± 0.02%. The body weight entry in the data set with mice (mice (male and female), 2 g/kg, within two weeks) is reported as “increased gradually”. In the data set with mice (mice, 2 g/kg), the behavioral abnormalities entry is reported as “No behavioral abnormalities”. The “pathological injury (HE staining)” value in the data set on mice (mice, 2 g/kg, six organs) is “no obvious pathological injury”. Also, the tolerability entry with mice (mice, single oral administration of 2 g/kg) is listed as “well tolerated”. For the same compound, in the data set on WT HIV-1 [5], the SI is given as 256,438. For the same compound, the IC50 on WT HIV-1 RT was 21 ± 1 nM. Besides, the concentration for a half-maximal effect (EC50) with WT HIV-1 [6] stood at 0.9 ± 0.1 nM; with HIV-1 mutant L100I, 8.2 ± 1.4 nM; in the data set with HIV-1 mutant K103N it was 1.9 ± 0.2 nM; in the data set with HIV-1 mutant Y188L it was 161 ± 27.6 nM; in the data set on HIV-1 mutant E138K, 3.5 ± 0.8 nM. Besides, the midpoint of cytotoxicity in data set [7], the CC50 at 5 days, lay at 264000 nM. The compound also gave a CC50 in the data set on MT-4 cells of 225000 ± 3900 nM.

Turning to `COc1ccc2c(c1)[C@]13CCCC[C@@H]1[C@H](C2)N(C)CC3` [Dextromethorphan], the IC50 on CYP2D6 was found to be 39.7 nM.
